The text below walks through data of US6407058B1, “Modifying the permeability of physiological barriers” (Eisai Co., Limited, priority 1996, dated 2002).

This test deals with p100/p120. The test is described as follows: phosphoamino acid (PAA) analysis of p100/p120, MDCK I cells. The test is classed as cell-based. The note with it: PDB treatment. The protocol: Following phosphate labelling, immunoprecipitation and visualisation of p100/p120 as in panel A above, the levels of p100/p120 protein were determined by immunoblotting. Thus it could be ascertained that approximately equal amounts of protein from PDB-treated and untreated cells were used for the PAA analysis. The p100/p120 bands were excised, and the proteins hydrolysed into their constituent amino acids by boiling in 5.7 M HCl. PAAs were then separated by two-dimensional electrophoresis, and detected by autoradiography. p100/p120 from control cells contains mainly phosphoserine (S), some phosphothreonine (T) and no detectable phosphotyrosine (Y). Following PDB treatment, both phosphoserine and phosphothreonine levels are reduced.
For phosphoamino acid (PAA) analysis, MDCK I cells were labelled as above with [^32P]orthophosphate, and the p100 and p120 extracted from PDB-treated or untreated cells by immunoprecipitation (as above). Following transfer to Immobilon P, and immunoblotting to assess recovery of protein, the area of the filter containing p100 and p120 was excised. The proteins were hydrolysed at 110° C. for one hour in 5.7 M HCl to release PAAs. Following lyophilisation, two dimensional PAA separation and detection was carried out as previously described (Boyle et al., 1991).

Consider `CCCC(=O)O[C@@H]1[C@@H](C)[C@@]2(O)[C@@H](C=C(CO)C[C@]3(O)C(=O)C(C)=C[C@@H]23)[C@@H]2C(C)(C)[C@]12OC(=O)CCC` [PDB, Phorbol-12,13-dibutyrate], for which the “phosphoserine and phosphothreonine levels of p100/p120” value is recorded as “reduced”; the “reduction in phosphate signal (PAA densitometry)” value is listed as “approximately 40%”.
